The text below walks through data of ChEMBL document CHEMBL3244003, “Synthesis and biological activity of several amino analogues of thymidine” (1978).

Assay [1] deals with Human alphaherpesvirus 1. Kind of assay: Antiviral activity against HSV1 at 400 uM. The format is functional.
The subject of assay [2] is CCRF S-180. Kind of assay: Antineoplastic activity against mouse S180 cells at 400 uM. The format is functional, cell-based.
The test system of assay [3] is L1210. The assay is described as follows: Antineoplastic activity against mouse L1210 cells at 400 uM. The format is functional, cell-based.
Assay [4] has as its system CCRF S-180. The assay is described as follows: Antineoplastic activity against mouse S180 cells at 250 uM. The format is functional.
In assay [5] the test system is CCRF S-180. The assay is described as follows: Antineoplastic activity against mouse S180 cells at 50 uM. The format is functional.
Assay [6] concerns CCRF S-180. Kind of assay: Antineoplastic activity against mouse S180 cells at 25 uM. The format is functional.
The test system of assay [7] is CCRF S-180. The assay is described as follows: Antineoplastic activity against mouse S180 cells at 5 uM. It counts as functional.
Assay [8] concerns CCRF S-180. Kind of assay: Antineoplastic activity against mouse S180 cells at 1 uM. The format is functional.
Assay [9] concerns L1210. The assay is described as follows: Antineoplastic activity against mouse L1210 cells at 500 uM. It counts as functional.
Assay [10] relates to L1210. Kind of assay: Antineoplastic activity against mouse L1210 cells at 250 uM. The format is functional.
Assay [11] has as its system L1210. Kind of assay: Antineoplastic activity against mouse L1210 cells at 50 uM. It counts as functional.
In assay [12] the test system is L1210. The assay is described as follows: Antineoplastic activity against mouse L1210 cells at 25 uM. The format is functional.
Assay [13] has as its system L1210. Kind of assay: Antineoplastic activity against mouse L1210 cells at 15 uM. It counts as functional.
The test system of assay [14] is L1210. Kind of assay: Antineoplastic activity against mouse L1210 cells at 3 uM. It counts as functional.
The subject of assay [15] is L1210. Kind of assay: Antineoplastic activity against mouse L1210 cells at 1 uM. It counts as functional.
Assay [16] has as its system L1210. Kind of assay: Antineoplastic activity against mouse L1210 cells at 0.5 uM. It counts as functional.
Assay [17] concerns L1210. Kind of assay: Antineoplastic activity against mouse L1210 cells at 1 uM in presence of thymidine relative to compound alone. It counts as functional.
Assay [18] has as its system L1210. The assay is described as follows: Antineoplastic activity against mouse L1210 cells at 3 uM in presence of thymidine relative to compound alone. It counts as functional.
Assay [19] deals with L1210. Kind of assay: Antineoplastic activity against mouse L1210 cells at 9 uM in presence of thymidine relative to compound alone. The format is functional.
Assay [20] relates to L1210. The assay is described as follows: Antineoplastic activity against mouse L1210 cells at 27 uM in presence of thymidine relative to compound alone. The format is functional.
For assay [21], the system named is L1210. Kind of assay: Antineoplastic activity against mouse L1210 cells at 1 uM in presence of deoxyuridine relative to compound alone. It counts as functional.
For assay [22], the system named is L1210. Kind of assay: Antineoplastic activity against mouse L1210 cells at 5 uM in presence of deoxyuridine relative to compound alone. The format is functional.
In assay [23] the test system is L1210. Kind of assay: Antineoplastic activity against mouse L1210 cells at 25 uM in presence of deoxyuridine relative to compound alone. It counts as functional.
Assay [24] has as its system L1210. The assay is described as follows: Antineoplastic activity against mouse L1210 cells at 1 uM in presence of deoxycytidine relative to compound alone. It counts as functional.
Assay [25] has as its system L1210. Kind of assay: Antineoplastic activity against mouse L1210 cells at 5 uM in presence of deoxycytidine relative to compound alone. The format is functional.
The test system of assay [26] is L1210. The assay is described as follows: Antineoplastic activity against mouse L1210 cells at 25 uM in presence of deoxycytidine relative to compound alone. The format is functional.
Assay [27] relates to L1210. The assay is described as follows: Antineoplastic activity against mouse L1210 cells at 1 uM in presence of deoxyadenosine relative to compound alone. The format is functional.
For assay [28], the system named is L1210. The assay is described as follows: Antineoplastic activity against mouse L1210 cells at 5 uM in presence of deoxyadenosine relative to compound alone. The format is functional.
In assay [29] the test system is L1210. The assay is described as follows: Antineoplastic activity against mouse L1210 cells at 25 uM in presence of deoxyadenosine relative to compound alone. The format is functional.
The test system of assay [30] is L1210. The assay is described as follows: Antineoplastic activity against mouse L1210 cells at 1 uM in presence of deoxyguanosine relative to compound alone. The format is functional.
Assay [31] has as its system L1210. The assay is described as follows: Antineoplastic activity against mouse L1210 cells at 5 uM in presence of deoxyguanosine relative to compound alone. It counts as functional.
The subject of assay [32] is L1210. Kind of assay: Antineoplastic activity against mouse L1210 cells at 25 uM in presence of deoxyguanosine relative to compound alone. The format is functional.
For assay [33], the system named is L1210. Kind of assay: Antineoplastic activity against mouse L1210 cells at 1 uM in presence of uridine relative to compound alone. The format is functional.
The subject of assay [34] is L1210. Kind of assay: Antineoplastic activity against mouse L1210 cells at 5 uM in presence of uridine relative to compound alone. It counts as functional.
Assay [35] concerns L1210. The assay is described as follows: Antineoplastic activity against mouse L1210 cells at 25 uM in presence of uridine relative to compound alone. The format is functional.
Assay [36] concerns L1210. Kind of assay: Antineoplastic activity against mouse L1210 cells at 1 uM in presence of cytidine relative to compound alone. It counts as functional.
For assay [37], the system named is L1210. The assay is described as follows: Antineoplastic activity against mouse L1210 cells at 5 uM in presence of cytidine relative to compound alone. The format is functional.
The test system of assay [38] is L1210. The assay is described as follows: Antineoplastic activity against mouse L1210 cells at 25 uM in presence of cytidine relative to compound alone. It counts as functional.

The inhibition is the change of the read-out against control, counted positive when it falls.

Activity calls are given as the source filed them. The rule behind the calls is not given here.

Consider `Cc1cn([C@H]2C[C@H](O)[C@@H](CN)O2)c(=O)[nH]c1=O`, for which the inhibition at 400 µM in assay [1] was 98%. Further, the inhibition result in assay [2] and in assay [3] was “inactive” in each case.
`Cc1cn([C@H]2C[C@H](N)[C@@H](CN)O2)c(=O)[nH]c1=O`: the inhibition result in assay [1], in [2] and in assay [3] was “inactive” in each case.
As to `Cc1cn([C@H]2C[C@H](N)[C@@H](CO)O2)c(=O)[nH]c1=O` [3-AMINO- 3-DEOXYTHYMIDINE], the inhibition at 400 µM in assay [1] is 62%. In addition, the inhibition at 250 µM turned out to be 73% in assay [4] and 93% in assay [10]. Moreover, the inhibition at 50 µM in [5] was 66%; in [11], 92%. Also, the inhibition at 25 µM in assay [6] turned out to be 68%; in [12], 88%; in assay [23], 48%; in [26], 28%; in assay [29], 93%; in assay [32], 102%. The inhibition at 25 µM in assay [35] was 95%; in [38], 99%. The inhibition at 5 µM in assay [7] came to 55%; in [22], 74%; in assay [25] it was 61%; in assay [28], 89%; in assay [31], 86%; in assay [34] it was 99%. The inhibition at 5 µM in assay [37] is 100%. For the same molecule, the inhibition at 1 µM in [8] was 37%; in [15] it was 58%; in assay [17], 75.2%; in assay [21] it was 88%; in [24], 80%; in assay [27], 89%. Further, the inhibition at 1 µM in [30] stood at 87%; in assay [33], 100%; in assay [36], 100%. Moreover, the inhibition at 500 µM in assay [9] worked out at 95%. Besides, the inhibition at 15 µM in [13] worked out at 91%. Further, the inhibition at 3 µM in assay [14] worked out at 87%; in [18], 55.2%. For the same molecule, the inhibition at 0.5 µM in assay [16] amounted to 43%. In addition, the inhibition at 9 µM in assay [19] turned out to be 38.1%. Further, the inhibition at 27 µM in [20] worked out at 22.4%.
